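Method: 48-hour compound exposure of cells in 96-well plates, five concentrations, linear interpolation of endpoints. At the TGI there is no net growth.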
Legend:
Test in all cases: growth of human tumour cells (NCI), 48 h
RPMI-8226 leukemia = system: RPMI-8226 leukemia
HT29 colon = system: HT29 colon
SK-MEL-2 melanoma = system: SK-MEL-2 melanoma
EKVX NSCLC = system: EKVX NSCLC
KM20L2 colon = system: KM20L2 colon
CCRF-CEM leukemia = system: CCRF-CEM leukemia
MALME-3M melanoma = system: MALME-3M melanoma
UACC-257 melanoma = system: UACC-257 melanoma
U251 CNS = system: U251 CNS
UO-31 renal = system: UO-31 renal
SK-MEL-28 melanoma = system: SK-MEL-28 melanoma
IGROV1 ovarian = system: IGROV1 ovarian
HCT-15 colon = system: HCT-15 colon
A498 renal = system: A498 renal
RXF-631 renal = system: RXF-631 renal
HCC-2998 colon = system: HCC-2998 colon
CAKI-1 renal = system: CAKI-1 renal
HOP-62 NSCLC = system: HOP-62 NSCLC
HL-60(TB) leukemia = system: HL-60(TB) leukemia
NCI-H460 lung = system: NCI-H460 lung
RXF 393 renal = system: RXF 393 renal
SNB-78 CNS = system: SNB-78 CNS
SF-539 CNS = system: SF-539 CNS
OVCAR-8 ovarian = system: OVCAR-8 ovarian
OVCAR-3 ovarian = system: OVCAR-3 ovarian
SW-620 colon = system: SW-620 colon
DMS 273 small cell lung = system: DMS 273 small cell lung
SNB-75 CNS = system: SNB-75 CNS
KM12 colon = system: KM12 colon
ACHN renal = system: ACHN renal
A549 NSCLC = system: A549 NSCLC
LXFL 529 NSCLC = system: LXFL 529 NSCLC
M14 melanoma = system: M14 melanoma
K-562 leukemia = system: K-562 leukemia
OVCAR-4 ovarian = system: OVCAR-4 ovarian
HCT-116 colon = system: HCT-116 colon
NCI-H23 lung = system: NCI-H23 lung
SK-OV-3 ovarian = system: SK-OV-3 ovarian
DLD-1 colon = system: DLD-1 colon
786-0 renal = system: 786-0 renal
TK-10 renal = system: TK-10 renal
DMS 114 small cell lung = system: DMS 114 small cell lung
MOLT-4 leukemia = system: MOLT-4 leukemia
M19-MEL melanoma = system: M19-MEL melanoma
OVCAR-5 ovarian = system: OVCAR-5 ovarian
SF-295 CNS = system: SF-295 CNS
UACC-62 melanoma = system: UACC-62 melanoma
NCI-H226 lung = system: NCI-H226 lung
SK-MEL-5 melanoma = system: SK-MEL-5 melanoma
COLO 205 colon = system: COLO 205 colon
LOX IMVI melanoma = system: LOX IMVI melanoma
HOP-92 NSCLC = system: HOP-92 NSCLC
HOP-18 NSCLC = system: HOP-18 NSCLC
XF 498 CNS = system: XF 498 CNS
SF-268 CNS = system: SF-268 CNS
SNB-19 CNS = system: SNB-19 CNS
NCI-H522 lung = system: NCI-H522 lung
SN12C renal = system: SN12C renal
SR leukemia = system: SR leukemia

In the case of `C[C@]12CC[C@H](O)CC1=CC[C@@H]1C2CC[C@]2(C)Nc3c(cnn3-c3ccccc3)CC12` (stereo partly drawn), the TGI (RPMI-8226 leukemia) was 1.49 µM, the TGI (HT29 colon) was 4.88 µM and the TGI (SK-MEL-2 melanoma) was 48.2 µM. It also gave a TGI (EKVX NSCLC) of 57.7 µM, a TGI (KM20L2 colon) of 5.8 µM and a TGI (CCRF-CEM leukemia) of 10.8 µM. For the same compound, the TGI (MALME-3M melanoma) was 36 µM, the TGI (UACC-257 melanoma) was 15 µM and the TGI (U251 CNS) was 14.9 µM. For the same compound, the TGI (UO-31 renal) was 25.3 µM, the TGI (SK-MEL-28 melanoma) was 18.7 µM and the TGI (IGROV1 ovarian) was 33.3 µM. For the same compound, the TGI (HCT-15 colon) was 18.6 µM, the TGI (A498 renal) was 29.7 µM and the TGI (RXF-631 renal) was 3.82 µM. For the same compound, the TGI (HCC-2998 colon) was 22.3 µM, the TGI (CAKI-1 renal) was 24.8 µM and the TGI (HOP-62 NSCLC) was 8.81 µM. It also gave a TGI (HL-60(TB) leukemia) of 7 µM, a TGI (NCI-H460 lung) of 10.8 µM and a TGI (RXF 393 renal) of 4.01 µM. It also gave a TGI (SNB-78 CNS) of 67.7 µM, a TGI (SF-539 CNS) of 2.99 µM and a TGI (OVCAR-8 ovarian) greater than 100 µM. It also gave a TGI (OVCAR-3 ovarian) of 40.2 µM, a TGI (SW-620 colon) of 8.22 µM and a TGI (DMS 273 small cell lung) of 3.66 µM. For the same compound, the TGI (SNB-75 CNS) was 9.12 µM, the TGI (KM12 colon) was 5.13 µM and the TGI (ACHN renal) was 29.7 µM. It also gave a TGI (A549 NSCLC) of 37 µM, a TGI (LXFL 529 NSCLC) of 19.7 µM and a TGI (M14 melanoma) of 30.9 µM. The TGI (K-562 leukemia) was 10.2 µM, the TGI (OVCAR-4 ovarian) was 36.6 µM and the TGI (HCT-116 colon) was 12.2 µM. The TGI (NCI-H23 lung) was 63 µM, the TGI (SK-OV-3 ovarian) was 20.7 µM and the TGI (DLD-1 colon) was 35.7 µM. For the same compound, the TGI (786-0 renal) was 7.16 µM, the TGI (TK-10 renal) was 83.2 µM and the TGI (DMS 114 small cell lung) was 15.1 µM. For the same compound, the TGI (MOLT-4 leukemia) was 5.15 µM, the TGI (M19-MEL melanoma) was 27.5 µM and the TGI (OVCAR-5 ovarian) was 17.3 µM. The TGI (SF-295 CNS) was 1.87 µM, the TGI (UACC-62 melanoma) was 17.4 µM and the TGI (NCI-H226 lung) was 56.1 µM. The TGI (SK-MEL-5 melanoma) was 12.4 µM.
`CCOC(=O)N1CCc2cc(OC)c(OC)cc2/C1=C\c1ccc(OC)c(OC)c1` showed a TGI (RPMI-8226 leukemia) greater than 100 µM, a TGI (HT29 colon) of 40.8 µM and a TGI (SK-MEL-2 melanoma) of 67.6 µM. The TGI (EKVX NSCLC) was 89.2 µM, the TGI (COLO 205 colon) was 59.9 µM and the TGI (LOX IMVI melanoma) was 40.3 µM. It also gave a TGI (KM20L2 colon) of 65.4 µM, a TGI (CCRF-CEM leukemia) of 72 µM and a TGI (MALME-3M melanoma) of 57.1 µM. It also gave a TGI (UACC-257 melanoma) of 53.8 µM, a TGI (U251 CNS) of 92.9 µM and a TGI (HOP-92 NSCLC) of 56.1 µM. For the same compound, the TGI (UO-31 renal) was 69.5 µM, the TGI (SK-MEL-28 melanoma) was greater than 100 µM and the TGI (HOP-18 NSCLC) was 90.7 µM. For the same compound, the TGI (IGROV1 ovarian) was greater than 100 µM, the TGI (HCT-15 colon) was greater than 100 µM and the TGI (A498 renal) was 68.5 µM. The TGI (XF 498 CNS) was greater than 10 µM, the TGI (HCC-2998 colon) was greater than 100 µM and the TGI (HOP-62 NSCLC) was greater than 100 µM. It also gave a TGI (SF-268 CNS) greater than 100 µM, a TGI (HL-60(TB) leukemia) of 53.1 µM and a TGI (RXF 393 renal) of 54.2 µM. For the same compound, the TGI (SNB-78 CNS) was greater than 100 µM, the TGI (SF-539 CNS) was 59.2 µM and the TGI (OVCAR-8 ovarian) was 92.7 µM. The TGI (OVCAR-3 ovarian) was 82.3 µM, the TGI (SW-620 colon) was greater than 100 µM and the TGI (DMS 273 small cell lung) was 61.9 µM. For the same compound, the TGI (SNB-75 CNS) was 79.3 µM, the TGI (KM12 colon) was 85.6 µM and the TGI (ACHN renal) was 94 µM. The TGI (A549 NSCLC) was 80.5 µM, the TGI (LXFL 529 NSCLC) was greater than 100 µM and the TGI (M14 melanoma) was greater than 10 µM. For the same compound, the TGI (K-562 leukemia) was greater than 10 µM, the TGI (SNB-19 CNS) was greater than 100 µM and the TGI (HCT-116 colon) was 40.4 µM. The TGI (NCI-H23 lung) was greater than 100 µM, the TGI (SK-OV-3 ovarian) was greater than 100 µM and the TGI (DLD-1 colon) was greater than 100 µM. It also gave a TGI (786-0 renal) of 52.1 µM, a TGI (TK-10 renal) of 73.9 µM and a TGI (DMS 114 small cell lung) greater than 100 µM. The TGI (NCI-H522 lung) was 77.6 µM, the TGI (MOLT-4 leukemia) was 91.1 µM and the TGI (SN12C renal) was greater than 100 µM. For the same compound, the TGI (M19-MEL melanoma) was 63.3 µM, the TGI (OVCAR-5 ovarian) was greater than 100 µM and the TGI (SF-295 CNS) was 61.2 µM. The TGI (UACC-62 melanoma) was 63.4 µM, the TGI (NCI-H226 lung) was 61.2 µM and the TGI (SR leukemia) was greater than 100 µM.

Reference: PubChem BioAssay (NCI)
